The record followed here is paper PMC9576799, “Discovery of small molecule inhibitors that effectively disrupt IQGAP1-Cdc42 interaction in breast cancer cells” (Scientific Reports, 2022).

Read-outs that look alike come from different tables or passages of the source.

Series [1] concerns the target T1, His-tagged GST (Schistosoma japonicum, UniProt P08515).
T1 construct: purchased Millipore #12-523
The experiment in a line: HTRF counter-screen with His-GST. The conditions noted are these: 100 nM His-GST. As to the method: Two different HTRF counter-screens were used to identify false positive hits. The two interacting proteins GST-IQGAP1-C and His-Cdc42-Q61L were replaced with His-tagged GST or Cdc42-Q61L containing GST at the N-terminus and His at the C-terminus (GST-Cdc42-Q61L-His).
The second counter-screen was performed with 100 nM His-tagged GST following the protocol described above.
Supplementary Table S2: Counter-screening HTRF protocol.
Step Parameter Value Description
1a Protein 4 µL 100 nM His-GST (final concentration), diluted in
1b Controls 4 µL Column 2: GST-IQGAP1-C protein only [1.5nM] final
Column 3: pre-mixed proteins (regular assay
2 Compounds 23 nL Selected compounds were pin-transferred from DMSO
HTRF α-His-XL (5 ng/µL, 3X working concentration) +
3 antibodies 2 µL α-GST-K (0.7 ng/µL 3X working concentration),
pre-mix mixed in binding buffer
4 Time 3 Incubation (ambient temperature)
5 Reagent 1 µL 2.8 M KF (7x)
6 Detector HTRF Envision plate reader (excitation: 340 nm, emission: […]

For series [2], the system named is control MCF7 cells. The experiment in a line: CellTiter-Glo cell viability assay, control MCF7. Type of series: cell-based, human. The conditions noted are these: 72 h. On the procedure:
Selected hit compounds were tested in CellTiterGlo cell viability assays to determine their cytotoxic effect on IQGAP1 knockout and control MCF7 cells. Prior to the assay, we assessed cell proliferation to keep both cell lines at similar exponential growth rates within 80 h after plating. For this purpose, the cells were plated onto 384-well clear bottom black plates (Perkin Elmer, Ultra) at various cell densities (between 625 and 10,000 cells/50µL/well), spun down for 15 s, and placed into Incucyte SX5 (Essen BioScience) for automated bright-field channel reading every 4 h. […] For the cytotoxicity assays, cells were harvested with 0.05% trypsin, spun down at 125xg for 5 min, re-suspended in fresh DMEM supplemented with 5% (v/v) FBS, and seeded into 1536-well white solid bottom tissue culture-treated plates (Greiner One, #789173-F) at 600 cells/5µL/well for knockout cells and 300 cells/5µL/well for control cells using a Multidrop Combi dispenser (Thermo Fisher Scientific Inc.). One column on each plate was dispensed with growth medium only (no cells) to gauge the maximal potential cytotoxic effect (IC100 control). The plates were kept in a tissue culture incubator at 37 °C with 5% CO2 for ~ 20 h for attachment and recovery of the cells. The next day, selected compounds were pin-transferred into the wells in columns 5–48, 23nL/well at 7-point 1:3 serial dilution, in the range of 46 µM to 78 nM final assay concentration. DMSO was used as the vehicle control (IC0). The plates were covered with stainless steel cell culture Kalypsys lids and incubated at 37 °C with 5% CO2 under 95% humidity for 72 h.
Plates and reagents were equilibrated to room temperature and then 5 µL/well of CellTiter Glo (Promega, #G7570) reagent was dispensed with a Multidrop Combi dispenser to the assay plates. After incubation for 10 min at ambient temperature, the luminescence signal was read with a ViewLux instrument (Perkin Elmer) with one second exposure. Relative luminescent units (RLU) for each well were normalized to the median RLUs from DMSO control wells as […] and “no cells” control wells as 100% viability.

In series [3] the test system is MDA-MB-231 cells. In words: Scratch wound migration assay. Type of series: cell-based, human. The conditions noted are these: for cell migration maximum efficiency / EC50: scratch wound, 72 h; for EC50: read-out: cell migration EC50. On the procedure:
MDA-MB-231 cells were grown to confluence and plated into a 96-well clear plate (Sartorius 4379) at 30,000 cells/100 µL/well in DMEM supplemented with 5% FBS. Cells were incubated at 37 °C with 5% CO2 overnight. Even wounds were created using a 96-pin wound device (Sartorius 4493) following the manufacturer’s protocol. Medium was then aspirated, and the cells were washed once with PBS pH 7.4 before adding 100 µL/well of fresh growth medium. Then 100 µL/well of growth medium containing compounds at an 8-point 1:2 titration dispensed into the cell plate resulting a final highest concentration of 50 µM for each compound. 0.5% DMSO was used as control. All samples were plated in triplicate. The plate was placed into an Incucyte SX5 Live-cell imaging system and phase images were taken in 2-h intervals for 72 h using the scratch wound setting. Medium was aspirated and replaced with a fresh medium containing compounds or DMSO after 24 h. The images were analyzed, and the wound density curves generated by the Incucyte software 2020A using the scratch wound analysis option.

In series [4] the target is T2, endogenous IQGAP1/Cdc42 interaction (Homo sapiens, UniProt P46940+P60953).
T2 construct: endogenous in cells; host or cells: HEK293 cell lysate
T2 sequence (P46940 2-1657 limits assumed): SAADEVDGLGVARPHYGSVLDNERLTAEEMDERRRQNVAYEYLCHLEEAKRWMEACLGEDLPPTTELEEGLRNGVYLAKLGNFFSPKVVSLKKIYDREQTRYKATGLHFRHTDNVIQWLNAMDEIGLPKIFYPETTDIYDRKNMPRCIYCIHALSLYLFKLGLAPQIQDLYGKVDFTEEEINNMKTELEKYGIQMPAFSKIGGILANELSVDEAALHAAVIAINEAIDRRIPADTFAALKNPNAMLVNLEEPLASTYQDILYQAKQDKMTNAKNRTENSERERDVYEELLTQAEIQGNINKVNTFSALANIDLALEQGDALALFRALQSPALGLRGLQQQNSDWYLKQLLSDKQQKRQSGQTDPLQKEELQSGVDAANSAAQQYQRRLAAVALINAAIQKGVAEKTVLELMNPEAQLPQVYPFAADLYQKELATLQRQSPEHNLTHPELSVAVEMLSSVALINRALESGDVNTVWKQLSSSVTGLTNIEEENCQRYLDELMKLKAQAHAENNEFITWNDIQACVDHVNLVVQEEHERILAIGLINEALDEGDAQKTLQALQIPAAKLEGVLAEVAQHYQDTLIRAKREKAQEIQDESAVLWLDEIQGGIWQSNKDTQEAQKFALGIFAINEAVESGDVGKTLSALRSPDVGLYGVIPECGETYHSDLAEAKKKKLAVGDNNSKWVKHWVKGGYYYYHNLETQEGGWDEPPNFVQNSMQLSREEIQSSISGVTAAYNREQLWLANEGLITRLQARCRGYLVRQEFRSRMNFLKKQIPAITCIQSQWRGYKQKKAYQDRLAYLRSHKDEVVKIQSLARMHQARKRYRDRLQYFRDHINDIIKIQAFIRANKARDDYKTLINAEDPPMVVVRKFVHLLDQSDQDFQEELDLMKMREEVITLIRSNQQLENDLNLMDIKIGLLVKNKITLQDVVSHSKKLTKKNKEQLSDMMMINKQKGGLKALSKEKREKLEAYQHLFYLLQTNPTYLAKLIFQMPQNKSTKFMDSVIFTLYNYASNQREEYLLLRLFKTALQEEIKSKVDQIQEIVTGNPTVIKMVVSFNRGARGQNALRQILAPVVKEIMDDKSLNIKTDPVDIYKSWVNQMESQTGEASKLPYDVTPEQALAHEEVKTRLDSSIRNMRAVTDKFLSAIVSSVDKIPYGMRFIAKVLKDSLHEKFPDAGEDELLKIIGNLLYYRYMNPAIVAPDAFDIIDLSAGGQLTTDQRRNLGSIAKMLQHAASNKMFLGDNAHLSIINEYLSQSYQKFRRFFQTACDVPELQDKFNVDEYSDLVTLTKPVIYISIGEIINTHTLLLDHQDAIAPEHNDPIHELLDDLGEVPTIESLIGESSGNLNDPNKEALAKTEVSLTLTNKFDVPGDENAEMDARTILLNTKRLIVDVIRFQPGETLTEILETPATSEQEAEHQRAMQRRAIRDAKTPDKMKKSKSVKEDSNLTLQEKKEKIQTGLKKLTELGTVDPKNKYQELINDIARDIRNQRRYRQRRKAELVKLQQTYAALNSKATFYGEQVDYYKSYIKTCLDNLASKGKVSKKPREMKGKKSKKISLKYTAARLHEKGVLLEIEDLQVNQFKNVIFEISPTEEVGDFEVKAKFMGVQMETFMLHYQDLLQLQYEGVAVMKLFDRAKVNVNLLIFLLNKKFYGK
T2 sequence (P60953 1-188 limits assumed): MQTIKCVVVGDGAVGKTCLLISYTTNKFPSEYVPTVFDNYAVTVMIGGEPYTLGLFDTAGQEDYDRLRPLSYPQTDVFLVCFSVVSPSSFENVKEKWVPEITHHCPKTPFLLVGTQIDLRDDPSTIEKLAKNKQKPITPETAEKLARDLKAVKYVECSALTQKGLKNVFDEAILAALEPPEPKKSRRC
The experiment in a line: Immunoprecipitation of endogenous IQGAP1 and co-precipitated Cdc42 in HEK293 cell lysates. Type of series: binding. Particulars: DMSO = 100% binding. As to the method: Each compound was added to lysates from HEK293 cells at a final concentration of 50 µM and endogenous IQGAP1 was immunoprecipitated. DMSO alone was used as the negative control (100% binding).
HEK293 cells were plated in 10-cm dishes to reach 80% confluence. The following day, the cells were washed with ice-cold phosphate-buffered saline (PBS) and lysed with 500 µl of Buffer A (50 mM Tris–HCl, pH 7.4, 150 mM NaCl, and 1% Triton X-100) supplemented with complete protease and phosphatase inhibitors (Roche, Mannheim, Germany). Lysates were subjected to two rounds of sonication for 10 s each, and insoluble material was precipitated by centrifugation at 13,000 xg for 10 min at 4 °C. Supernatants were precleared with protein A-Sepharose beads for 1 h. DMSO (vehicle) or different concentrations of the compounds (0.2, 0.6, 1, 5, 16 or 50 µM) were added to equal amounts of protein lysates for 30 min. Protein A-Sepharose beads and anti-IQGAP1 polyclonal antibodies were then added for 2 h at 4 °C. Anti-rabbit IgG antibodies were used as the immunoprecipitation control. Samples were washed five times with Buffer A, resolved by SDS-PAGE and transferred to polyvinylidene fluoride (PVDF) membranes (Millipore Corp). Membranes were probed with anti-IQGAP1 and anti-Cdc42 antibodies. After secondary antibody detection, Western blots were imaged using a LI-COR Odyssey infrared imaging system (LI-COR, USA). Western blot quantification and analysis was conducted using Image Studio™ Lite (LI-COR Biosciences).

T1 sequence (P08515 whole entry): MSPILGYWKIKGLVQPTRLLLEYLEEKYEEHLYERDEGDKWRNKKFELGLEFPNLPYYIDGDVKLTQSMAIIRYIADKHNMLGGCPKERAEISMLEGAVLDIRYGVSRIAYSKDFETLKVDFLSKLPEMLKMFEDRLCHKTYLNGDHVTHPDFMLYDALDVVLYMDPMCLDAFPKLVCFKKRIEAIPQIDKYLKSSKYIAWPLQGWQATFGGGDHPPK

For the compound `CCN(CC)CCn1c2ccccc2c2nc3ccc([N+](=O)[O-])cc3cc21` [MLS000332963], the “activity in His-GST counter-screen” value in series [1] is “inactive”. This compound came in with a cytotoxicity efficacy in series [2] of 47%. In addition, the EC50 in series [2] (read-out: cytotoxicity EC50) came out at 19.9 µM. In addition, in series [3] (50 µM (Fig. S3)), the “effect on cell shape” value was “flatter and spread out more on the plastic”. Besides, in series [3], the “cell migration maximum efficiency” value stood at 39% and the EC50 is 2.7 µM.
For `Cc1cccc(NC(=O)c2c(NC(=O)C(F)(F)F)sc3c2CCCCC3)c1` [NCGC00098561], the “activity in His-GST counter-screen” value in series [1] is “not active”. Also, the IC50 in series [2] (Homo sapiens, read-out: cytotoxicity EC50) was 2.24 µM. For the same compound, the Emax in series [2] (Homo sapiens, read-out: cytotoxicity efficacy) was ~100%.
With `CCN1CCN(c2ncc3c(n2)CCN(Cc2cc(Br)cs2)C3)CC1` [NCGC00131308], in series [4] (16 µM (Fig. 3b)), the “reduction of interaction between endogenous IQGAP1 and Cdc42 (mean)” value was 60%. In addition, the inhibition at 50 µM in series [3] (Homo sapiens, 50 μM, the highest concentration used, read-out: inhibition of cell migration) was found to be 57.7 ± 7.2%.
In the case of `CCc1ccccc1Nc1ncnc2c1cnn2-c1ccc(Cl)cc1` [NCGC00138812], in series [4] (0.2 µM (Fig. 3b)), the “reduction of interaction between endogenous IQGAP1 and Cdc42 (mean)” value is 47%. Further, the EC50 in series [3] (Homo sapiens) was determined as 12.9 µM. Moreover, in series [3], the “cell migration maximum efficiency” value is 20%.
